{"source": "patent US8835466B2", "about": "“Synthesis and uses of pyroglutamic acid derivatives” (Prodimed, S.A., priority 2006, dated 2014)", "key": {"[1]": {"test_system": "Renca cells (renal cell carcinoma)", "assay": "Effect of isomers on in vivo tumour growth in mice challenged with Renca cells (Example 7)", "parameters": "species or system Balb/c mice", "conditions": "260 ng/mouse i.p. days 6, 7, 14"}, "[2]": {"test_system": "Ehrlich tumour cells (murine mammary adenocarcinoma)", "assay": "Effect of isomers and BLAS on in vivo tumour growth, Ehrlich tumours (Example 9)", "parameters": "species or system Balb/c mice", "conditions": "for Tumour surface, overall values (Mean) / Tumour surface, overall values (Median) / Tumour volume, overall values (Mean) / Tumour volume, overall values (Median): 260 ng/mouse i.p. days 6, 7 and 14"}, "[3]": {"conditions": "day 11 after tumour inoculation"}, "[4]": {"conditions": "day 13 after tumour inoculation"}, "[5]": {"conditions": "day 16 after tumour inoculation"}, "[6]": {"conditions": "day 20 after tumour inoculation"}, "[7]": {"conditions": "day 23 after tumour inoculation"}, "[8]": {"conditions": "day 29 after tumour inoculation"}, "[9]": {"conditions": "day 31 after tumour inoculation"}, "[10]": {"conditions": "day 35 after tumour inoculation"}, "[11]": {"conditions": "day 38 after tumour inoculation"}}, "data": [{"compound": "Br.N[C@@]1(C[n+]2ccccc2)C[C@@H](C(=O)O)NC1=O.[Br-]", "note": "(single isomer, unassigned; isomer 1) [isomer 1, 3R,5S-1-(3-Amino-5-carboxy-2-oxopyrrolidin-3-ylmethyl)pyridinium bromide hidrobromide]", "values": [{"measurement": "Tumour surface, overall values (Mean)", "setting": "[1]; day 0 after tumour inoculation", "result": 0, "unit": "mm^2"}, {"measurement": "Tumour surface, overall values (Median)", "setting": "[1]; day 0 after tumour inoculation", "result": 0, "unit": "mm^2"}, {"measurement": "Tumour volume, overall values (Mean)", "setting": "[1]; day 0 after tumour inoculation", "result": 0, "unit": "mm^3"}, {"measurement": "Tumour volume, overall values (Median)", "setting": "[1]; day 0 after tumour inoculation", "result": 0, "unit": "mm^3"}, {"measurement": "Tumour surface, overall values (Median)", "setting": "[1]; [3]", "result": 0, "unit": "mm^2"}, {"measurement": "Tumour volume, overall values (Median)", "setting": "[1]; [3]", "result": 0, "unit": "mm^3"}, {"measurement": "Inhibition of the in vivo growth of Ehrlich tumour cells, in words", "setting": "[2]; 260 ng i.p. days 6, 7 and 14", "result": "inhibit the in vivo growth"}, {"measurement": "Tumour surface, overall values (Mean)", "setting": "[2]; day 0 after tumour inoculation", "result": 0, "unit": "mm^2"}, {"measurement": "Tumour surface, overall values (Median)", "setting": "[2]; day 0 after tumour inoculation", "result": 0, "unit": "mm^2"}, {"measurement": "Tumour volume, overall values (Mean)", "setting": "[2]; day 0 after tumour inoculation", "result": 0, "unit": "mm^3"}, {"measurement": "Tumour volume, overall values (Median)", "setting": "[2]; day 0 after tumour inoculation", "result": 0, "unit": "mm^3"}, {"measurement": "Tumour surface, overall values (Mean)", "setting": "[2]; day 8 after tumour inoculation", "result": 5.69, "unit": "mm^2"}, {"measurement": "Tumour surface, overall values (Median)", "setting": "[2]; day 8 after tumour inoculation", "result": 2, "unit": "mm^2"}, {"measurement": "Tumour volume, overall values (Mean)", "setting": "[2]; day 8 after tumour inoculation", "result": 9.91, "unit": "mm^3"}, {"measurement": "Tumour volume, overall values (Median)", "setting": "[2]; day 8 after tumour inoculation", "result": 2, "unit": "mm^3"}, {"measurement": "Tumour surface, overall values (Mean)", "setting": "[2]; [4]", "result": 13.69, "unit": "mm^2"}, {"measurement": "Tumour surface, overall values (Median)", "setting": "[2]; [4]", "result": 16, "unit": "mm^2"}, {"measurement": "Tumour volume, overall values (Mean)", "setting": "[2]; [4]", "result": 31.34, "unit": "mm^3"}, {"measurement": "Tumour volume, overall values (Median)", "setting": "[2]; [4]", "result": 32, "unit": "mm^3"}, {"measurement": "Tumour surface, overall values (Mean)", "setting": "[2]; [5]", "result": 20.875, "unit": "mm^2"}, {"measurement": "Tumour surface, overall values (Median)", "setting": "[2]; [5]", "result": 20.5, "unit": "mm^2"}, {"measurement": "Tumour volume, overall values (Mean)", "setting": "[2]; [5]", "result": 53.12, "unit": "mm^3"}, {"measurement": "Tumour volume, overall values (Median)", "setting": "[2]; [5]", "result": 47.25, "unit": "mm^3"}, {"measurement": "Tumour surface, overall values (Mean)", "setting": "[2]; [6]", "result": 32.37, "unit": "mm^2"}, {"measurement": "Tumour surface, overall values (Median)", "setting": "[2]; [6]", "result": 27.5, "unit": "mm^2"}, {"measurement": "Tumour volume, overall values (Mean)", "setting": "[2]; [6]", "result": 105.19, "unit": "mm^3"}, {"measurement": "Tumour volume, overall values (Median)", "setting": "[2]; [6]", "result": 68.75, "unit": "mm^3"}, {"measurement": "Tumour surface, overall values (Mean)", "setting": "[2]; [7]", "result": 42.12, "unit": "mm^2"}, {"measurement": "Tumour surface, overall values (Median)", "setting": "[2]; [7]", "result": 39.5, "unit": "mm^2"}, {"measurement": "Tumour volume, overall values (Mean)", "setting": "[2]; [7]", "result": 160.5, "unit": "mm^3"}, {"measurement": "Tumour volume, overall values (Median)", "setting": "[2]; [7]", "result": 123.25, "unit": "mm^3"}, {"measurement": "Tumour surface, overall values (Mean)", "setting": "[2]; [8]", "result": 50, "unit": "mm^2"}, {"measurement": "Tumour surface, overall values (Median)", "setting": "[2]; [8]", "result": 39.5, "unit": "mm^2"}, {"measurement": "Tumour volume, overall values (Mean)", "setting": "[2]; [8]", "result": 202.19, "unit": "mm^3"}, {"measurement": "Tumour volume, overall values (Median)", "setting": "[2]; [8]", "result": 123.25, "unit": "mm^3"}, {"measurement": "Tumour surface, overall values (Mean)", "setting": "[2]; [9]", "result": 57, "unit": "mm^2"}, {"measurement": "Tumour surface, overall values (Median)", "setting": "[2]; [9]", "result": 46.5, "unit": "mm^2"}, {"measurement": "Tumour volume, overall values (Mean)", "setting": "[2]; [9]", "result": 249.06, "unit": "mm^3"}, {"measurement": "Tumour volume, overall values (Median)", "setting": "[2]; [9]", "result": 147.75, "unit": "mm^3"}, {"measurement": "Tumour surface, overall values (Mean)", "setting": "[2]; [10]", "result": 68.87, "unit": "mm^2"}, {"measurement": "Tumour surface, overall values (Median)", "setting": "[2]; [10]", "result": 52.5, "unit": "mm^2"}, {"measurement": "Tumour volume, overall values (Mean)", "setting": "[2]; [10]", "result": 342.94, "unit": "mm^3"}, {"measurement": "Tumour volume, overall values (Median)", "setting": "[2]; [10]", "result": 173.25, "unit": "mm^3"}, {"measurement": "Tumour surface, overall values (Mean)", "setting": "[2]; [11]", "result": 78.81, "unit": "mm^2"}, {"measurement": "Tumour surface, overall values (Median)", "setting": "[2]; [11]", "result": 53, "unit": "mm^2"}, {"measurement": "Tumour volume, overall values (Mean)", "setting": "[2]; [11]", "result": 425.91, "unit": "mm^3"}, {"measurement": "Tumour volume, overall values (Median)", "setting": "[2]; [11]", "result": 191, "unit": "mm^3"}, {"measurement": "Differences in Ehrlich tumour growth rate vs. placebo, statistical significance p (Mann-Whitney U test)", "setting": "[2]; either in surface or volume, all days scored after the day 13th", "result": "< 0.05"}]}]}
